Experiment [1] concerns S. epidermitis. The experiment is described as follows: MIC determination (agar dilution or broth microdilution), activity against S. epidermitis. It counts as cell-based. The arrangement: unit not given beside the values. The note with it: Comparison: MIC values for the actives taken alone. The method, then: (§1) Synergistic activity of mixtures of 4-Isopropyl-3-methylphenol an alpha bisabolol with regard to S. aureus and S. epidermidis was determined. […]
(§2) Antimicrobial activity was evaluated by determining the Minimum Inhibitory Concentration (MIC) representing the lowest concentration of a chemical which prevents visible growth of a bacterium.
(§3) The MIC values were determined by preparing solutions of the chemical in vitro at increasing concentrations, incubating the solutions with the separate batches of cultured bacteria, and measuring the results using agar dilution or broth microdilution. Results have been graded into susceptible (often called sensitive), intermediate, or resistant to a particular antibiotic by using a cutoff point. Cut off points are agreed upon values, published in guidelines of a reference body, such as the U.S. Clinical and Laboratory Standards Institute (CLSI), the British Society for Antimicrobial Chemotherapy (BSAC) or the European Committee on Antimicrobial Susceptibility Testing (EUCAST).
Background: In agar dilution the substance is mixed into plates at graded concentrations.

Experiment [2] has as its system S. aureus. In words: MIC determination (agar dilution or broth microdilution), activity against S. aureus. The conditions noted are these: Comparison: MIC values for the actives taken alone. On the set-up: unit not given beside the values. It counts as cell-based. The method, then:
as §1, §2, §3

Experiment [3] concerns mold growth on moist alfalfa hay. The conditions noted are these: moist alfalfa hay preservation, Agronomy Journal 47, 64-69, 1955; cited from earlier work.

The text below walks through data of patent publication US20220168198A1, “AN ANTIMICROBIAL MIXTURE” (SYMRISE AG, priority 2019, published 2022).

`CC(C)=CCC[C@](C)(O)[C@@H]1CC=C(C)CC1` [alpha-Bisabolol]: the MIC in experiment [1] and in experiment [2] was 125 throughout.
Turning to `Cc1cc(O)ccc1C(C)C` [4-Isopropyl-3-methylphenol], the MIC in experiment [1] and in experiment [2] was 250 in each case.
In the case of `CC(=O)c1ccc(O)cc1` [4-hydroxyacetophenone], in experiment [3], the “prevention of mold growth” value is “not prevent mold growth”.
